Source: PMC3690544 (European journal of pharmacology, 2012)
Where two headings read alike, the source gives them in different places.

Columns and labels:
P-glycoprotein (Pgp) [1] = molecular target: T1, P-glycoprotein (Pgp) (Homo sapiens, UniProt P08183); format: cell-based
P-glycoprotein (Pgp) [2] = molecular target: T1, P-glycoprotein (Pgp); format: cell-based; remark: listed apart in the source

T1 sequence (P08183 whole entry): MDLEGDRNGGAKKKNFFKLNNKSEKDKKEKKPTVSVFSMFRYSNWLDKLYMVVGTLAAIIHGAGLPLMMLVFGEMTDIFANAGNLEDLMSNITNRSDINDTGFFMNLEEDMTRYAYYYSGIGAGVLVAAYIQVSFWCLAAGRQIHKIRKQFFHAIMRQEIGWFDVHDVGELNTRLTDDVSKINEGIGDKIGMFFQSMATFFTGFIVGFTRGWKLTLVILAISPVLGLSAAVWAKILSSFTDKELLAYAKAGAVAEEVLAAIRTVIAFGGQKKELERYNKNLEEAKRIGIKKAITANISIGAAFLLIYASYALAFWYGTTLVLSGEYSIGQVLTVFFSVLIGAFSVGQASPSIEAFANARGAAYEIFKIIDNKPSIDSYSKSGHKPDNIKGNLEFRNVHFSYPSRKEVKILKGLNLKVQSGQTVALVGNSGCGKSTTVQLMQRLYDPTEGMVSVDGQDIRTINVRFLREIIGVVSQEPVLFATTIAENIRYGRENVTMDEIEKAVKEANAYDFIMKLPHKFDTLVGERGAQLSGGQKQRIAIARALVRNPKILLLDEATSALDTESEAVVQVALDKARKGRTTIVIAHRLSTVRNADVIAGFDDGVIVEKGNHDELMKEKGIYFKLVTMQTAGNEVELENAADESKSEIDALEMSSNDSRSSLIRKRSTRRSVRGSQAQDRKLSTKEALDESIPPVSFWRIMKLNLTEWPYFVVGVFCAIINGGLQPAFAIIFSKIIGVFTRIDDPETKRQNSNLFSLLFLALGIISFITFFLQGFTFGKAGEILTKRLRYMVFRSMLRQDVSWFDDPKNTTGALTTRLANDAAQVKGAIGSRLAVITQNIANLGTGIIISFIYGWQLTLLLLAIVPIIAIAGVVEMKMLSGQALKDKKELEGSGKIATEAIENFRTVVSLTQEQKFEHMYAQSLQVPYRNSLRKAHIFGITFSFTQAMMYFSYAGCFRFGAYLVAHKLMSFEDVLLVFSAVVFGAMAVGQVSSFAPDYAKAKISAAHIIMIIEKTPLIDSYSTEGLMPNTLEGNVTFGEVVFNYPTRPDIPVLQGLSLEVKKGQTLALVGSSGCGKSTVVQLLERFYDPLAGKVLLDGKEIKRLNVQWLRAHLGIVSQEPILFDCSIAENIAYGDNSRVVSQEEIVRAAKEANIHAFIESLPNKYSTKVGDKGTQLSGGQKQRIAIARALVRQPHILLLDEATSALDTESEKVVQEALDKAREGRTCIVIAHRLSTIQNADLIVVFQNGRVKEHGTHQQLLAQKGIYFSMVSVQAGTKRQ

| IC50 (P-glycoprotein (Pgp) [1]) [nM] | IC50 (P-glycoprotein (Pgp) [2]) [nM] | Compound |
| --- | --- | --- |
| 13.1 ± 2.3 |  | COc1cc2c(cc1OC)CN(CCc1ccc(-n3nnc(-c4cc(OC)c(OC)cc4NC(=O)c4cc(=O)c5ccccc5o4)n3)cc1)CC2 [HM30181, N-(2-(2-(4-(2-(6,7-dimethoxy-3,4-dihydroisoquinolin-2(1H)-yl)ethyl)phenyl)-2H-tetrazol-5-yl)-4,5-dimethoxyphenyl)-4-oxo-4H-chromene-2-carboxamide] |
|  | 8.2 ± 2 | COc1cc2c(cc1OC)CN(CCc1ccc(NC(=O)c3cc(OC)c(OC)cc3NC(=O)c3cnc4ccccc4c3)cc1)CC2 [tariquidar] |
